# Measured values: patent US20260182575A1, “MOLECULES HAVING PESTICIDAL UTILITY AND INTERMEDIATES AND PROCESSES RELATED THERETO” (CORTEVA AGRISCIENCE LLC, priority 2022, published 2026)
# Where “and” joins values, the source holds several entries; their conditions need not be identical. Equal entries are not always repeated.
# Legend:
# [1] = tested on: Green Peach Aphid (Myzus persicae, MYZUPE, GPA); assay: Bioassay 1: green peach aphid, cabbage seedling foliar spray; format: in vivo; conditions: for Average % Control AI: 3 days
# Protocol: Bioassay 1: Green Peach Aphid (Myzus persicae, MYZUPE, “GPA”).
# Stock solutions of F1 and various active ingredients were prepared initially at a concentration of 4 milligrams per milliliter (mg/mL) for F1 and 0.1 mg/mL for the active ingredients, respectively, using a 1:1 mixture of acetone:methanol as a diluent. Stock solutions were prepared with F1 as well as for each of the active ingredients individually. Test solutions were prepared from the stock solutions. Test solutions were prepared containing F1, the individual active ingredients, and mixtures of F1 with each of the active ingredients. The test solutions for F1 and the individual active ingredients were prepared by adding 750 microliters (μL) of stock solution to a 25 mL glass vial, then adding 750 μL of 1:1 acetone:methanol solvent, followed by the addition of 13.5 mL water with 0.025% Tween® 20 to create a 0.0005% (weight/volume (w/v)) solution. The test solutions containing mixtures of F1, and the individual active ingredients were prepared by adding 750 μL of the active ingredient stock solution to a 25 mL glass vial, followed by 750 μL of the F1 stock solution, then by the addition of 13.5 mL water with 0.025% Tween® 20 to create a test solution containing 0.0005% (w/v) F1 and 0.0005% (w/v) of the active ingredient. Each test solution was serially diluted to create desired doses of test solutions (0.0005% (w/v), 0.000125% (w/v), 0.00003125% (w/v), 0.0000078% (w/v), 0.00000195% (w/v), and 0.0000005% (w/v)). In test solutions containing mixtures of F1 and the active ingredients, the active ingredients were diluted as described above, but the concentration of F1 was held constant (0.04% (w/v)).
# The test solutions were tested against GPA using the following procedure: cabbage seedlings, grown in 3-inch pots with 2-3 small (3-5 centimeter (cm)) true leaves, were used as test substrate. The seedlings were infested with 20-50 GPA (wingless adult and nymph stages) one day prior to chemical application. Four pots with individual seedlings were used for each treatment. A hand-held aspirator-type sprayer was used for spraying a solution to both sides of […] leaves until runoff. Reference plants (solvent check) were sprayed with the diluent only (0.025% Tween® 20 and 10% acetone:methanol (1:1) in water). Treated plants were held in a holding room for three days at approximately 25° C. and ambient relative humidity (RH about 20% to about 45%) prior to grading. Evaluation was conducted by counting the number of live aphids per plant under a microscope three days after treatment. Percent control was measured using Abbott's correction formula (W. S. Abbott, J. Econ. Entomol. 18 (1925), pp. 265-267) as follows:
# where X=No. of live aphids on solvent check plants and Y=No. of live aphids on treated plants. In Table B1 the “Expected % Control” was calculated using the method described in Colby S. R., Weeds, 1967, 15, 20-22. Bioassay 2: Sweet Potato Whitefly (Bemisia tabaci, BEMITA, “SPW”).
# [2] = tested on: Corn Earworm (Helicoverpa zea, HELIZE, CEW); assay: Bioassay 4: corn earworm, artificial diet, 128-cell tray; format: in vivo; conditions: for Average % Control AI: AI alone; for Average % Control F1: F1 alone
# In short: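 Test solutions (0.0000004–0.04% w/v, i.e. 0.00005–5 μg/cm² on diet) were pipetted onto artificial lepidopteran diet and one 2nd-instar larva was placed per cell, 8 replicates per species, held at ~26° C. Live larvae were counted after 5 days; percent control used Abbott's correction against a solvent check.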
# [3] = AI alone at the rate of Wt Ratio F1:AI 1:2564 (F1 0.04)
# [4] = AI alone at the rate of Wt Ratio F1:AI 1:640 (F1 0.04)
# [5] = AI alone at the rate of Wt Ratio F1:AI 1:40000 (F1 0.04)
compound,measurement,setting,value
Chlorfenapyr,Average % Control AI,[1]; [3],10.1%
same,Average % Control AI,[2]; 0.000004 wt %,0.0%
same,Average % Control AI,[2]; 0.00004 wt %,12.5%
COC(=O)N(C(=O)N1CO[C@@]2(C(=O)OC)Cc3cc(Cl)ccc3C2=N1)c1ccc(OC(F)(F)F)cc1 [Indoxacarb],Average % Control AI,[1]; [4],10.1%
same,Average % Control AI,[1]; [5],0.0%
same,Average % Control AI,[2]; 0.000004 wt %,0.0%
same,Average % Control AI,[2]; 0.00004 wt %,0.0%
same,Average % Control AI,[2]; 0.0004 wt %,0.0%
Cc1c(COC(=O)[C@@H]2[C@H](/C=C(\Cl)C(F)(F)F)C2(C)C)cccc1-c1ccccc1 (racemic) [Bifenthrin],Average % Control AI,[1]; [5],16.3%
same,Average % Control AI,[2]; 0.000004 wt %,0.0%
same,Average % Control AI,[2]; 0.00004 wt %,0.0%
CON=CNC(=O)c1ccc(C2=NOC(c3cc(Cl)cc(Cl)c3)(C(F)(F)F)C2)cc1C (stereo not drawn) [Fluxametamide],Average % Control AI,[1]; [3],23.1%
same,Average % Control AI,[2]; 0.000004 wt %,0.0%
same,Average % Control AI,[2]; 0.00004 wt %,0.0%
CN1COCN(Cc2cnc(Cl)s2)/C1=N\[N+](=O)[O-] [Thiamethoxam],Average % Control AI,[1]; AI alone at the rate of Wt Ratio F1:AI 1:10256 (F1 0.04),8.5%
same,Average % Control AI,[1]; [5],0.0%
same,Average % Control AI,[2]; 0.000004 wt %,0.0%
same,Average % Control AI,[2]; 0.00004 wt %,0.0%
CC1=NNC(=O)N(/N=C/c2cccnc2)C1 [Pymetrozine],Average % Control AI,[1]; [4],47.6%
same,Average % Control AI,[1]; [5],15.4%
same,Average % Control AI,[2]; 0.000004 wt %,0.0%
same,Average % Control AI,[2]; 0.00004 wt %,0.0%
C[C@]1(COC(=O)C2CC2)[C@@H]2C[C@H](O)[C@@]3(C)Oc4cc(-c5cccnc5)oc(=O)c4[C@H](O)[C@@H]3[C@@]2(C)CC[C@@H]1OC(=O)C1CC1 [Afidopyropen],Average % Control AI,[2]; 0.000004 wt %,0.0%
same,Average % Control AI,[2]; 0.00004 wt %,0.0%
Cc1ccc(COCC(F)(F)F)c(N2C(=O)CS/C2=N\C(=O)Nc2ccc(-c3ncn(-c4ccc(OC(F)(F)F)cc4)n3)cc2F)c1 [F1],Average % Control F1,"[1]; F1 alone, Wt % 0.04 (10^-6), cabbage spray, 3 days after treatment",8.8% and 7.1% and 15.8%
same,Average % Control F1,[2]; 0.0000004 wt %,0.0%
same,Average % Control F1,[2]; 0.00004 wt %,75.0%
